Assays:
[1] = donated by ROVI pharmaceutical laboratories; cited from earlier work
[2] = Thermogravimetric analysis (TGA) of polymers and nanoparticle systems; format: physicochemical
Method: The thermogravimetric analysis (TGA) was carried out under N2 atmosphere in TGA Q500 (TA) equipment between 25 and 600° C. with a heating rate of 10° C./min.
The products were characterized by ATR-FTIR (4000 to 600 cm−1), TGA (25 to 600° C. under nitrogen atmosphere at 10° C./min) and DSC (the scan was carried out at a constant rate of 10° C./min, with a N2 flow of 20 ml/min, with temperatures in the range of −20 to 180° C.) to determine the glass transition temperature of the NP. For the calculation of the Tg, the temperature at which half of the difference in specific heat between the vitreous amorphous and elastomer amorphous states is reached is taken, that is, Tg=½ ΔCp. This point corresponds to the inflection point of the change in slope in the thermogram of the second scan.

BaF32 cells = experiment: BaF32 proliferation assay; format: cell-based
Method: The measurements of biological activity of the free and encapsulated bemiparin were carried out by cell proliferation assay. For this, BaF32 cells were used, which are a type of lymphocyte B, the cell signalling of which is mediated by the formation of a complex between the bemiparin, the FGF-2 and its corresponding FGFR1c receptor on the cell surface.
Bemiparin forms a ternary complex (FIG. 27) with the fibroblast growth factor (FGF-2) and its corresponding specific membrane receptor (FGFR1c) thus increasing the cellular signalling process corresponding to the proliferation process (Dillen, K., J. Vandervoort, G. Van den Mooter, and A. Ludwig. 2006. Evaluation of ciprofloxacin-loaded Eudragit® RS100 or RL100/PLGA nanoparticles. International Journal of Pharmaceutics 314 (1): 72-82; Eto, T. 2001. A review of the biological properties and clinical implications of adrenomedullin and proadrenomedullin N-terminal 20 peptide (PAMP), hypotensive and vasodilating peptides. Peptides 22 (11): 1693-1711). Given this property, an experiment was designed to verify that the encapsulated bemiparin maintains its biological activity. For this BaF32 cells were used, which are a type of lymphocyte B, the cell signalling of which is modulated by a by a specific bond between the FGF-2 and its corresponding FGFR1c receptor on the cell surface.

T10% (temperature at which 10% of the system has been degraded) [2]: 120 °C
Substance: bemiparin
activity of bemiparin as supplied [1]: 111.3 IU/mg
effect on cell proliferation / activity of the FGF-2 (BaF32 cells; FGF-2, FGFR1c): promoting cell proliferation
dependence of the cellular response on the concentration of bemiparin (BaF32 cells; different concentrations of bemiparin): independent from the concentration of bemiparin used
